Results reported in patent publication US10774086B2, “GSK-3 inhibitors” (BRISTOL-MYERS SQUIBB COMPANY, priority 2016, dated 2020).

Tests used:
pTau = pTau assay; assay type: cell-based
GSK3β = GSK3β (Homo sapiens (Human), UniProt P49841); test: GSK3β kinase assay (Caliper LabChip, fluoresceinated peptide substrate); assay type: biochemical; details: 250 pM enzyme, 20 uM ATP, 1.5 uM peptide, 20 hours room temperature; read-out: GSK3β IC50 (first value of GSK3β/GSK3α)
Description: The kinase assay was performed in V-bottom 384-well plates. […] The reaction was incubated at room temperature for 20 hours and terminated by adding 45 μl of 35 mM EDTA to each sample. The reaction mixture was analyzed on the Caliper LabChip3000 (Caliper, Hopkinton, Mass.) by electrophoretic separation of the unphosphorylated substrate and phosphorylated product. […] Compounds were dissolved at 10 mM in dimethylsulfoxide (DMSO) and evaluated at eleven concentrations. IC50 values were derived by non-linear regression analysis.

GSK3α = GSK3α (Homo sapiens (Human), UniProt P49840); test: GSK3α kinase assay (Caliper LabChip, fluoresceinated peptide substrate); assay type: biochemical; details: 250 pM enzyme, 20 uM ATP, 1.5 uM peptide, 20 hours room temperature; read-out: GSK3α IC50 (second value of GSK3β/GSK3α)
Description: IC50 values were derived by non-linear regression analysis.

Sequence of GSK3α (P49840 whole entry, species assumed): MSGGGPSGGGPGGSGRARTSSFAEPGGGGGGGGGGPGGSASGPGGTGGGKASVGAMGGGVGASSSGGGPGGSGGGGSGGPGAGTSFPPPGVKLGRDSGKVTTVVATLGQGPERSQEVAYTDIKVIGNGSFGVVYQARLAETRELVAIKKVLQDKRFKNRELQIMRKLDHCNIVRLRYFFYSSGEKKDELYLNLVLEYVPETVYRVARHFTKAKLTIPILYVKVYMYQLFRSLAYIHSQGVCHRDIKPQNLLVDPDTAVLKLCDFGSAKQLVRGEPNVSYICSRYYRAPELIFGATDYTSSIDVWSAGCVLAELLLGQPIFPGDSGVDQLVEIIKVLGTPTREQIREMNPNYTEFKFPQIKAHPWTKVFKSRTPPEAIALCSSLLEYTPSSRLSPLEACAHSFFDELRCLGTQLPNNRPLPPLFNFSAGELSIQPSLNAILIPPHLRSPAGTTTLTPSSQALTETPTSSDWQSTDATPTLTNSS
Sequence of GSK3β (P49841 whole entry, species assumed): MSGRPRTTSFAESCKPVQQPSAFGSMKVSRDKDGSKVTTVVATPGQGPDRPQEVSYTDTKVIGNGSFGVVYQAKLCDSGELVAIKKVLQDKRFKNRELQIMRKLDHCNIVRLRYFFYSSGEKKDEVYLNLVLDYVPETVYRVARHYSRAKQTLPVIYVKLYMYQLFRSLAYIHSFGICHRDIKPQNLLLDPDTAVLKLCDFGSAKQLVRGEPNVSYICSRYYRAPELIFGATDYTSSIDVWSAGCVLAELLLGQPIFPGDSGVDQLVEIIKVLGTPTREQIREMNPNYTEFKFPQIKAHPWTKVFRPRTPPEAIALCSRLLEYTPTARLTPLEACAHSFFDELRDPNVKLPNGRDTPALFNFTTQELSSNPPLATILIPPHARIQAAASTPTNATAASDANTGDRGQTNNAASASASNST

Work on `CC1CN(c2ccncc2NC(=O)c2ccnn3cc(-c4ccccc4)nc23)CCO1` (racemic) [Example 14, N-(4-(2-Methylmorpholino)pyridin-3-yl)-2-phenylimidazo[1,2-b]pyridazine-8-carboxamide] yielded an IC50 (pTau) of 58 nM, an IC50 (GSK3β) of 0.75 nM and an IC50 (GSK3α) of 0.4 nM.
With `CC1CN(c2ccncc2NC(=O)c2ccnn3cc(-c4ccccc4)nc23)CCO1` (single isomer, unassigned) [Example 15, N-(4-(2-Methylmorpholino)pyridin-3-yl)-2-phenylimidazo[1,2-b]pyridazine-8-carboxamide] the IC50 (pTau) was 9.2 nM, the IC50 (GSK3β) was 0.2 nM and the IC50 (GSK3α) was 0.09 nM.
With `CC1CN(c2ccncc2NC(=O)c2ccnn3cc(-c4ccccc4)nc23)CCO1` (single isomer, unassigned) [Example 16, N-(4-(2-Methylmorpholino)pyridin-3-yl)-2-phenylimidazo[1,2-b]pyridazine-8-carboxamide] the IC50 (pTau) was 86 nM, the IC50 (GSK3β) was 0.8 nM and the IC50 (GSK3α) was 0.3 nM.
Compound `O=C(Nc1cccnc1)c1ccnn2cc(-c3ccccc3)nc12` [Example 1, 2-Phenyl-N-(pyridin-3-yl)imidazo[1,2-b]pyridazine-8-carboxamide] has an IC50 (pTau) of 660 nM.
`Cc1ccncc1NC(=O)c1ccnn2cc(-c3ccccc3)nc12` [Example 2, N-(4-Methylpyridin-3-yl)-2-phenylimidazo[1,2-b]pyridazine-8-carboxamide] was tested, and the IC50 (pTau) was 250 nM, the IC50 (GSK3β) was 3.5 nM and the IC50 (GSK3α) was 0.8 nM.
With `CC(C)Oc1ccncc1NC(=O)c1ccnn2cc(-c3ccccc3)nc12` [Example 3, N-(4-Isopropoxypyridin-3-yl)-2-phenylimidazo[1,2-b]pyridazine-8-carboxamide] the IC50 (pTau) was 83 nM, the IC50 (GSK3β) was 0.7 nM and the IC50 (GSK3α) was 0.4 nM.
Compound `O=C(Nc1cnccc1OCC(F)(F)F)c1ccnn2cc(-c3ccccc3)nc12` [Example 4, 2-Phenyl-N-(4-(2,2,2-trifluoroethoxy)pyridin-3-yl)imidazo[1,2-b]pyridazine-8-carboxamide] has an IC50 (pTau) of 22 nM, an IC50 (GSK3β) of 0.3 nM and an IC50 (GSK3α) of 0.1 nM.
`CS(=O)(=O)c1ccncc1NC(=O)c1ccnn2cc(-c3ccccc3)nc12` [Example 5, N-(4-(Methylsulfonyl)pyridin-3-yl)-2-phenylimidazo[1,2-b]pyridazine-8-carboxamide] gave an IC50 (pTau) of 120 nM, an IC50 (GSK3β) of 1.5 nM and an IC50 (GSK3α) of 0.4 nM.
Compound `O=C(Nc1cnccc1-c1ccccc1)c1ccnn2cc(-c3ccccc3)nc12` [Example 6, 2-Phenyl-N-(4-phenylpyridin-3-yl)imidazo[1,2-b]pyridazine-8-carboxamide] has an IC50 (pTau) of 900 nM, an IC50 (GSK3β) of 3.6 nM and an IC50 (GSK3α) of 1.1 nM.
`O=C(Nc1cnccc1-c1ccc(F)cc1)c1ccnn2cc(-c3ccccc3)nc12` [Example 7, N-(4-(4-Fluorophenyl)pyridin-3-yl)-2-phenylimidazo[1,2-b]pyridazine-8-carboxamide] gave an IC50 (GSK3β) of 1.6 nM and an IC50 (GSK3α) of 0.6 nM.
`O=C(Nc1cnccc1N1CCCCC1)c1ccnn2cc(-c3ccccc3)nc12` [Example 9, 2-Phenyl-N-(4-(piperidin-1-yl)pyridin-3-yl)imidazo[1,2-b]pyridazine-8-carboxamide] gave an IC50 (GSK3β) of 1.1 nM and an IC50 (GSK3α) of 0.2 nM.
Compound `N#CC1CCN(c2ccncc2NC(=O)c2ccnn3cc(-c4ccccc4)nc23)CC1` [Example 10, N-(4-(4-Cyanopiperidin-1-yl)pyridin-3-yl)-2-phenylimidazo[1,2-b]pyridazine-8-carboxamide] has an IC50 (GSK3β) of 0.2 nM and an IC50 (GSK3α) of 0.1 nM.
In the case of `COc1cncc(NC(=O)c2ccnn3cc(-c4ccccc4)nc23)c1` [Example 19, N-(5-Methoxypyridin-3-yl)-2-phenylimidazo[1,2-b]pyridazine-8-carboxamide], the IC50 (pTau) is reported as 3200 nM and the IC50 (GSK3β) is reported as 37 nM.
`O=C(Nc1cnccc1N1CCOCC1)c1ccnn2cc(-c3cccnc3)nc12` [Example 36, N-(4-Morpholinopyridin-3-yl)-2-(pyridin-3-yl)imidazo[1,2-b]pyridazine-8-carboxamide] gave an IC50 (GSK3β) of 1.3 nM and an IC50 (GSK3α) of 0.4 nM.
